One test has as its target T1, His-hMAGL (recombinant polyhistidine tagged human MAGL protein) (Homo sapiens, UniProt Q99685).
T1 construct: made in house; host or cells: E. coli BL21(DE3)
T1 sequence (Q99685 1-303): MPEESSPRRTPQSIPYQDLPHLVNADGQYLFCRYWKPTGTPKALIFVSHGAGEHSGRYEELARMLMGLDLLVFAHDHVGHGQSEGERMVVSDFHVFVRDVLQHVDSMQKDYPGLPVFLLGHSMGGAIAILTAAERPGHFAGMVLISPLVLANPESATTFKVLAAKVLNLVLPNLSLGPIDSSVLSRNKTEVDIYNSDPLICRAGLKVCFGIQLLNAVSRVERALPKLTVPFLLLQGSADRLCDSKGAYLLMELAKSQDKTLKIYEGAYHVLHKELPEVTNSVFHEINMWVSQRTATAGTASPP
The test is described as follows: Measurement of MAGL inhibitory activity (arachidonic acid production from 2-arachidonylglycerol, RapidFire-mass spectrometry). In kind it is biochemical. Conditions: MAGL inhibitory rate at 10 μM test compound; 60 min preincubation with His-hMAGL, 2-arachidonylglycerol substrate, 10 min reaction at room temperature. As for the experimental part:
Furthermore, acetonitrile (50 μL) containing 3 μM arachidonic acid-d8 (Cayman Chemical Company) was added and the mixture was stirred.
The amount of arachidonic acid in the obtained enzyme reaction mixture was calculated by measuring by RapidFire-mass spectrometry and correcting by the amount of arachidonic acid-d8. High Throughput online solid phase extraction was performed using RapidFire 300™ system (Agilent Technologies, Inc.). Samples were loaded on SPE C4 cartridge (Agilent Technologies, Inc.) and desalted with 0.2 (v/v) % acetic acid (Wako Pure Chemical Industries, Ltd.) in ultrapure water/acetonitrile (70/30, v/v) at a flow rate of 1.5 mL/min, eluted at a flow rate of 0.5 mL/min with 0.2 (v/v) % acetic acid dissolved in acetonitrile/ultrapure water (90/10, v/v), and injected into the mass spectrometry part. The injection needle was washed with ultrapure water (500 millisecond) and acetonitrile (500 millisecond) to minimize carry-over. […] The RapidFire300 system was controlled by RapidFire UI software version 3.6 (Agilent Technologies, Inc.).
The mass spectrometry of the resultant product was performed using API4000™ triple quadrupole mass spectrometer (AB SCIEX) equipped with an electrospray ion sauce (TurboIon Spray™) in a negative selected reaction monitoring (SRM) mode. The conditions of SRM are shown below. The parameters of the instrument were optimized as follows: capillary temperature 600° C., ion spray voltage −4.5 kV, collision gas 8, curtain gas 15 psi, ion source gas 1 60 psi, ion source gas 2 60 psi. The mass spectrometer was controlled by Analyst™ software version 1.5.1 (AB SCIEX). The peak area integration was analyzed using RapidFire integrator software version 3.6 (Agilent Technologies, Inc.).
MAGL inhibitory rate (%) was calculated according to the following calculation formula. (1−(arachidonic acid production amount of test compound addition group−arachidonic acid production amount of enzyme−free group)÷(arachidonic acid production amount of test compound-free group−arachidonic acid production amount of enzyme-free group))×100
With `O=C1COc2cc(F)c(C(=O)N3CC(COc4ccc(-c5ccc(F)cn5)cc4F)C3)cc2N1` [Example 228, 7-fluoro-6-((3-((2-fluoro-4-(5-fluoropyridin-2-yl)phenoxy)methyl)azetidin-1-yl)carbonyl)-2H-1,4-benzoxazin-3(4H)-one], the inhibition at 10 µM was determined as 94%.
The same measure, in the same setting: as for `O=C1COc2cc(F)c(C(=O)N3CC(COc4ccc(-c5ccccn5)cc4F)C3)cc2N1` [Example 227, 7-fluoro-6-((3-((2-fluoro-4-(pyridin-2-yl)phenoxy)methyl)azetidin-1-yl)carbonyl)-2H-1,4-benzoxazin-3(4H)-one], the figure is 97%; as for `CC(C)(O)c1ccc(OCC2CCN(C(=O)c3cc4c(cc3F)OCC(=O)N4)CC2)c(Cl)c1` [Example 90, 6-((4-((2-chloro-4-(2-hydroxypropan-2-yl)phenoxy)methyl)piperidin-1-yl)carbonyl)-7-fluoro-2H-1,4-benzoxazin-3(4H)-one], 98%; as for `Cc1c(-c2ccc(OCC3CN(C(=O)c4cc5c(cc4F)OCC(=O)N5)C3)c(F)c2)cnn1C` [Example 250, 6-((3-((4-(1,5-dimethyl-1H-pyrazol-4-yl)-2-fluorophenoxy)methyl)azetidin-1-yl)carbonyl)-7-fluoro-2H-1,4-benzoxazin-3(4H)-one], 101%.
Take `O=C1COc2cc(F)c(C(=O)N3CC(COc4ccc(-c5ccc(F)nc5)cc4F)C3)cc2N1` [Example 238, 7-fluoro-6-((3-((2-fluoro-4-(6-fluoropyridin-3-yl)phenoxy)methyl)azetidin-1-yl)carbonyl)-2H-1,4-benzoxazin-3(4H)-one]: the inhibition at 10 µM came out at 99%.
Regarding `O=C1COc2cc(F)c(C(=O)N3CC(COc4ccc(OCC(F)(F)F)cc4)C3)cc2N1` [Example 114, 7-fluoro-6-((3-((4-(2,2,2-trifluoroethoxy)phenoxy)methyl)azetidin-1-yl)carbonyl)-2H-1,4-benzoxazin-3(4H)-one], the inhibition at 10 µM is 99%.
On to `O=C1COc2cc(F)c(C(=O)N3CC(COc4ccc(Cl)cc4C4=CCOCC4)C3)cc2N1` [Example 211, 6-((3-((4-chloro-2-(3,6-dihydro-2H-pyran-4-yl)phenoxy)methyl)azetidin-1-yl)carbonyl)-7-fluoro-2H-1,4-benzoxazin-3(4H)-one], for which the inhibition at 10 µM worked out at 101%.
Still for that read-out and setting: with `Cn1nccc1-c1ccc(OCC2CN(C(=O)c3cc4c(cc3F)OCC(=O)N4)C2)c(F)c1` [Example 254, 7-fluoro-6-((3-((2-fluoro-4-(1-methyl-1H-pyrazol-5-yl)phenoxy)methyl)azetidin-1-yl)carbonyl)-2H-1,4-benzoxazin-3(4H)-one] the figure was 102%; with `O=C1COc2cc(F)c(C(=O)N3CC(COc4ccc(Cl)cc4)C3)cc2N1` [Example 111, 6-((3-((4-chlorophenoxy)methyl)azetidin-1-yl)carbonyl)-7-fluoro-2H-1,4-benzoxazin-3(4H)-one], 98%.
`Cc1nn(C)c(C)c1-c1ccc(OCC2CN(C(=O)c3cc4c(cc3F)OCC(=O)N4)C2)c(F)c1` [Example 251, 7-fluoro-6-((3-((2-fluoro-4-(1,3,5-trimethyl-1H-pyrazol-4-yl)phenoxy)methyl)azetidin-1-yl)carbonyl)-2H-1,4-benzoxazin-3(4H)-one]: the inhibition at 10 µM stood at 100%.
With `Cc1ccc(OCC2CN(C(=O)c3cc4c(cc3F)OCC(=O)N4)C2)c(C)c1` [Example 165, 6-((3-((2,4-dimethylphenoxy)methyl)azetidin-1-yl)carbonyl)-7-fluoro-2H-1,4-benzoxazin-3(4H)-one], the inhibition at 10 µM is 103%.
Regarding `COc1ccccc1-c1ccccc1OCC1CN(C(=O)c2cc3c(cc2F)OCC(=O)N3)C1` [Example 174, 7-fluoro-6-((3-(((2′-methoxybiphenyl-2-yl)oxy)methyl)azetidin-1-yl)carbonyl)-2H-1,4-benzoxazin-3(4H)-one], the inhibition at 10 µM stood at 102%.
For `O=C1COc2cc(F)c(C(=O)N3CCC(COc4ccc(F)cc4Cl)CC3)cc2N1` [Example 66, 6-((4-((2-chloro-4-fluorophenoxy)methyl)piperidin-1-yl)carbonyl)-7-fluoro-2H-1,4-benzoxazin-3(4H)-one], the inhibition at 10 µM was determined as 104%.
As to `O=C1COc2cc(F)c(C(=O)N3CC(COc4ccc(Br)cc4)C3)cc2N1` [Example 182, 6-((3-((4-bromophenoxy)methyl)azetidin-1-yl)carbonyl)-7-fluoro-2H-1,4-benzoxazin-3(4H)-one], the inhibition at 10 µM is 98%.
Consider `CC(C)Cn1cc(-c2cc(Cl)ccc2OCC2CN(C(=O)c3cc4c(cc3F)OCC(=O)N4)C2)cn1` [Example 224, 6-((3-((4-chloro-2-(1-isobutyl-1H-pyrazol-4-yl)phenoxy)methyl)azetidin-1-yl)carbonyl)-7-fluoro-2H-1,4-benzoxazin-3(4H)-one], for which the inhibition at 10 µM is 103%.
The same measure, in the same setting: as for `Cc1cncc(-c2cc(Cl)ccc2OCC2CN(C(=O)c3cc4c(cc3F)OCC(=O)N4)C2)c1` [Example 202, 6-((3-((4-chloro-2-(5-methylpyridin-3-yl)phenoxy)methyl)azetidin-1-yl)carbonyl)-7-fluoro-2H-1,4-benzoxazin-3(4H)-one], the figure is 100%.
As to `O=C1COc2cc(F)c(C(=O)N3CC(COc4ccc(C(F)F)cc4F)C3)cc2N1` [Example 288, 6-((3-((4-(difluoromethyl)-2-fluorophenoxy)methyl)azetidin-1-yl)carbonyl)-7-fluoro-2H-1,4-benzoxazin-3(4H)-one], the inhibition at 10 µM was 101%.
In the case of `O=C1COc2cc(F)c(C(=O)N3CCC(COc4cccc(-c5ccccc5)c4)CC3)cc2N1` [Example 150, 6-((4-((biphenyl-3-yloxy)methyl)piperidin-1-yl)carbonyl)-7-fluoro-2H-1,4-benzoxazin-3(4H)-one], the inhibition at 10 µM worked out at 100%.
On to `O=C1COc2cc(F)c(C(=O)N3CC(COc4ccc(Cl)cc4-c4ccccn4)C3)cc2N1` [Example 189, 6-((3-((4-chloro-2-(pyridin-2-yl)phenoxy)methyl)azetidin-1-yl)carbonyl)-7-fluoro-2H-1,4-benzoxazin-3(4H)-one], for which the inhibition at 10 µM stood at 102%.
Take `Cc1cccnc1-c1ccc(OCC2CN(C(=O)c3cc4c(cc3F)OCC(=O)N4)C2)c(F)c1` [Example 231, 7-fluoro-6-((3-((2-fluoro-4-(3-methylpyridin-2-yl)phenoxy)methyl)azetidin-1-yl)carbonyl)-2H-1,4-benzoxazin-3(4H)-one]: the inhibition at 10 µM turned out to be 100%.
On to `Cc1cc(OCC2CN(C(=O)c3cc4c(cc3F)OCC(=O)N4)C2)ccc1F` [Example 287, 7-fluoro-6-((3-((4-fluoro-3-methylphenoxy)methyl)azetidin-1-yl)carbonyl)-2H-1,4-benzoxazin-3(4H)-one], for which the inhibition at 10 µM came out at 100%.
Regarding `O=C1COc2cc(F)c(C(=O)N3CC(COCc4ccc5scnc5c4)C3)cc2N1` [Example 272, 6-((3-((1,3-benzothiazol-5-ylmethoxy)methyl)azetidin-1-yl)carbonyl)-7-fluoro-2H-1,4-benzoxazin-3(4H)-one], the inhibition at 10 µM was determined as 100%.
The same measure, in the same setting: as for `O=C1COc2cc(F)c(C(=O)N3CCC(COC4CCC(F)(F)CC4)CC3)cc2N1` [Example 95, 6-((4-(((4,4-difluorocyclohexyl)oxy)methyl)piperidin-1-yl)carbonyl)-7-fluoro-2H-1,4-benzoxazin-3(4H)-one], the figure is 97%; as for `O=C1COc2cc(F)c(C(=O)N3CC(COc4ccc(Cl)cc4-c4ccnc(F)c4)C3)cc2N1` [Example 207, 6-((3-((4-chloro-2-(2-fluoropyridin-4-yl)phenoxy)methyl)azetidin-1-yl)carbonyl)-7-fluoro-2H-1,4-benzoxazin-3(4H)-one], 100%.
On to `O=C1COc2cc(F)c(C(=O)N3CC(COc4ccccc4)C3)cc2N1` [Example 140, 7-fluoro-6-((3-(phenoxymethyl)azetidin-1-yl)carbonyl)-2H-1,4-benzoxazin-3(4H)-one], for which the inhibition at 10 µM stood at 100%.

The same test, now with this note: MAGL inhibitory rate at 10 μM test compound; 60 min preincubation with His-hMAGL, 2-arachidonylglycerol substrate, 10 min reaction at room temperature; 10 µM.
With `CC(Oc1ccc(F)cc1Cl)C1CCN(C(=O)c2cc3c(cc2F)OCC(=O)N3)CC1` (centres unmarked) [Example 295, 6-((4-(1-(2-chloro-4-fluorophenoxy)ethyl)piperidin-1-yl)carbonyl)-7-fluoro-2H-1,4-benzoxazin-3(4H)-one], the “% inhibition (10 μM)” value stood at 101%.

The values are drawn from patent US10106556B2, “Heterocyclic compound” (TAKEDA PHARMACEUTICAL COMPANY LIMITED, priority 2015, dated 2018).
